Source: patent US9255072B2, “Pyrazole compounds and thiazole compounds as protein kinases inhibitors” (National Health Rsearch Institutes, priority 2011, dated 2016)
pIC50: −log10 of the molar value. Like-named read-outs stand apart in the source and are kept apart here.

Key:
Format in all cases: biochemical
VEGFR1 = target: T1, VEGFR1 (Homo sapiens, UniProt P17948); test: VEGFR1 Kinase-Glo kinase assay; settings: 1 μM ATP
T1 construct: GST-VEGFR1 (residues R781-I1338); GST (N); made in house; host or cells: Sf9 insect cells
T1 sequence (P17948 781-1338): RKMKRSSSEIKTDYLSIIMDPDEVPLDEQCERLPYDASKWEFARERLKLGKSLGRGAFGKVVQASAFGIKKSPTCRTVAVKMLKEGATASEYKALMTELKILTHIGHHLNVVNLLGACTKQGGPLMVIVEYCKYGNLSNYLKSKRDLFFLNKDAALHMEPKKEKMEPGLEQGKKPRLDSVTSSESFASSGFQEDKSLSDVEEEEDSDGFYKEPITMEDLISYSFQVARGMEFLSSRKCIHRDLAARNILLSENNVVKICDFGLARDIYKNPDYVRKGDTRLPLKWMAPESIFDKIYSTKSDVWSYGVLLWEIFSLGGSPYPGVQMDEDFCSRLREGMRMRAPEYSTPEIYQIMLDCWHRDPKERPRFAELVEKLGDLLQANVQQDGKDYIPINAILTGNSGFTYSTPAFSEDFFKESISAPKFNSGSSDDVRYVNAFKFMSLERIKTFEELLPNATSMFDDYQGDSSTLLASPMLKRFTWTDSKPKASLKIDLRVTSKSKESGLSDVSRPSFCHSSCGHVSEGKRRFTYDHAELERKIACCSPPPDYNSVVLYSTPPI
Experimental: (§1) The recombinant GST-VEGFR1 (residues R781-I1338) or GST-VEGFR2 (residues V789-V1356) containing kinase domain were expressed in Sf9 insect cells. The kinase assay were carried out in 96-well plates with tested compound in a final volume of 50 μl reaction at 30° C. for 120 minutes with following components: 25 mM HEPES pH 7.4, 10 mM MgCl2, 4 mM MnCl2, 0.5 mM Na3VO4, 2 mM DTT, 0.02% Triton X100, 0.01% BSA, 1 μM ATP, 2 μM polyGlu4:Tyr peptide, 50˜100 ng recombinant VEGFR1 or VEGFR2. Following incubation, 50 μl Kinase-Glo Plus Reagent (Promega, Madison, Wis., USA) was added to each well and the mixture was incubated at 25° C. for 20 min. A 70-μL aliquot of each reaction mixture was transferred to a black microtiter plate and the luminescence was measured on Wallac Vector 1420 multilabel counter (PerkinElmer, Shelton, Conn., USA).

wt-FLT3 = target: T2, wt-FLT3 (Homo sapiens, UniProt P36888); test: FLT3 WT Kinase-Glo assay; settings: FLT3 WT Kinase-Glo, 1 μM ATP; read-out: IC50
T2 construct: FLT3 kinase catalytic domain (residues Y567˜S993); made in house; host or cells: Sf9 insect cells (baculovirus, pBac-PAK8-GST-FLT3-KD plasmid)
T2 sequence (P36888 567-993): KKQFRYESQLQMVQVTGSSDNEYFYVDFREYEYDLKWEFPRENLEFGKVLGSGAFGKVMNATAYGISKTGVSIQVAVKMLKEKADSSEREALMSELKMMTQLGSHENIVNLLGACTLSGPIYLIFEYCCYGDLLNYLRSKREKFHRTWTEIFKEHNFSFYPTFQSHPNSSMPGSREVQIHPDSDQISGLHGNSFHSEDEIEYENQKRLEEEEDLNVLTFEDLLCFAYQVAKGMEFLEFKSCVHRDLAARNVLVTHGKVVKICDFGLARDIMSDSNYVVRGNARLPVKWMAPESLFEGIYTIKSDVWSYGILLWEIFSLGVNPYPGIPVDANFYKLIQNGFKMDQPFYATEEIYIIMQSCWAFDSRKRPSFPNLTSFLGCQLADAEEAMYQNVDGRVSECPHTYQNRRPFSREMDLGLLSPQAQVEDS
Experimental: GST-FLT3-KD^WT containing the FLT3 kinase catalytic domain (residues Y567˜S993) were expressed in Sf9 insect cells transfected the baculovirus containing pBac-PAK8-GST-FLT3-KD plasmid. […] Following incubation, 50 μl Kinase-Glo Plus Reagent (Promega, Madison, Wis., USA) was added to each well and the mixture was incubated at 25° C. for 20 min. A 70-μL aliquot of each reaction mixture was transferred to a black microtiter plate and the luminescence was measured on Wallac Vector 1420 multilabel counter (PerkinElmer, Shelton, Conn., USA).

VEGFR2 = target: T3, VEGFR2 (Homo sapiens, UniProt P35968); test: VEGFR2 Kinase-Glo kinase assay; settings: 1 μM ATP
T3 construct: GST-VEGFR2 (residues V789-V1356); GST (N); made in house; host or cells: Sf9 insect cells
T3 sequence (P35968 789-1356): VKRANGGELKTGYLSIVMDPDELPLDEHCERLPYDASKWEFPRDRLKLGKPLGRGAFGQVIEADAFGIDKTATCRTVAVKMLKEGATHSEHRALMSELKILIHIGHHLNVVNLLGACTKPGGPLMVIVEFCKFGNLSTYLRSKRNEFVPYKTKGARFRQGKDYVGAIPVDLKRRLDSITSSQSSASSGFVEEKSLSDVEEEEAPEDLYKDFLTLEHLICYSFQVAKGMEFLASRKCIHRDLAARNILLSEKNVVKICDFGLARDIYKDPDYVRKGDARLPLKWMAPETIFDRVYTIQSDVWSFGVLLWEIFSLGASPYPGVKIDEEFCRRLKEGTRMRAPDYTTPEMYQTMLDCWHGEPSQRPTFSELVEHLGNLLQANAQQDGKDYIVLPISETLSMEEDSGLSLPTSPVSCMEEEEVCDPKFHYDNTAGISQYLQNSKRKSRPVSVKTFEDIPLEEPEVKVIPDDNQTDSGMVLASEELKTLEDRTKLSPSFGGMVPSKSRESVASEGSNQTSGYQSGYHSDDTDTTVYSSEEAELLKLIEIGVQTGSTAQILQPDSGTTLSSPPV
Experimental: as §1

[1] = VEGFR1 assay, bound in μM, read-out: IC50
[2] = VEGFR2 assay, bound in μM, read-out: IC50
[3] = VEGFR2 assay, ranges in nM, read-out: IC50
[4] = VEGFR1 assay, bound in nM, read-out: IC50
[5] = IC50, VEGFR1 assay, bound in μM
[6] = IC50, VEGFR2 assay, bound in μM
[7] = IC50, VEGFR2 assay, ranges in nM

SMILES | pIC50 (wt-FLT3) | IC50 (VEGFR2; [2]) | IC50 (VEGFR2; [3]) | other results
O=C(Nc1cc(-c2cccc(NS(=O)(=O)c3ccccc3)c2)n[nH]1)c1ccc(OCCN2CCCC2)cc1 [Compound 24, N1-(3-3-[(phenylsulfonyl)amino]phenyl-1H-5-pyrazolyl)-4-(2-tetrahydro-1H-1-pyrrolylethoxy)benzamide] | 7.70 to 9.00 | < 1 µM | 0.055 to 0.4 µM | IC50 (VEGFR1; [1]): < 1 µM
Cc1cc(NC(=O)NCc2ccc(-c3cc(NC(=O)c4ccc(OCCN5CCCC5)cc4)[nH]n3)cc2)no1 [Compound 57, N1-(3-4-[([(5-methyl-3-isoxazolyl)amino]carbonylamino)methyl]phenyl-1H-5-pyrazolyl)-4-(2-tetrahydro-1H-1-pyrrolylethoxy)benzamide] | 7.70 to 9.00 | < 1 µM | 0.001 to 0.055 µM | –
CN1CCN(c2ccc(C(=O)Nc3cc(-c4ccc(CNC(=O)Nc5ccccc5)cc4)n[nH]3)cc2)CC1 [Compound 51, N1-[3-(4-[(anilinocarbonyl)amino]methylphenyl)-1H-5-pyrazolyl]-4-(4-methylpiperazino)benzamide] | 7.70 to 9.00 | < 1 µM | 0.001 to 0.055 µM | –
O=C(NCc1ccc(-c2cc(NC(=O)c3ccc(OCCN4CCOCC4)cc3)[nH]n2)cc1)OCc1cccnc1 [Compound 80, 3-Pyridylmethyl-N-[4-(5-[4-(2-morpholinoethoxy)benzoyl]amino-1H-3-pyrazolyl)benzyl]carbamate] | 7.70 to 9.00 | – | – | –
CN1CCN(c2ccc(C(=O)Nc3cc(-c4ccc(NC(=O)Nc5cc(C(C)(C)C)on5)cc4)n[nH]3)cc2)CC1 [Compound 37, N1-(3-4-[([5-(tert-butyl)-3-isoxazolyl]aminocarbonyl)amino]phenyl-1H-5-pyrazolyl)-4-(4-methylpiperazino)benzamide] | 7.70 to 9.00 | < 1 µM | 0.001 to 0.055 µM | IC50 (VEGFR1; [4]): < 0.1 µM; IC50 (VEGFR1; [1]): < 1 µM
Cc1nc(Nc2cc(-c3ccc(CNC(=O)OCc4cccnc4)cc3)n[nH]2)cc(N2CCN(C)CC2)n1 [Compound 101, 3-Pyridylmethyl-N-[4-(5-[2-methyl-6-(4-methylpiperazino)-4-pyrimidinyl]amino-1H-3-pyrazolyl)benzyl]carbamate] | 7.70 to 9.00 | – | – | –
Cc1nc(Nc2cc(-c3ccc(CNC(=O)OCc4ccccc4)cc3)n[nH]2)cc(N2CCN(C)CC2)n1 [Compound 96, Benzyl-N-[4-(5-[2-methyl-6-(4-methylpiperazino)-4-pyrimidinyl]amino-1H-3-pyrazolyl)benzyl]carbamate] | 7.70 to 9.00 | < 1 µM | 0.055 to 0.4 µM | IC50 (VEGFR1; [1]): < 1 µM
CN1CCN(c2ccc(C(=O)Nc3cc(-c4ccc(CNC(=O)c5ccccc5)cc4)n[nH]3)cc2)CC1 [Compound 11, N1-(3-4-[(benzoylamino)methyl]phenyl-1H-5-pyrazolyl)-4-(4-methylpiperazino)benzamide] | 7.70 to 9.00 | – | – | –
CN1CCN(c2ccc(C(=O)Nc3cc(-c4ccc(CNC(=O)Oc5ccccc5)cc4)n[nH]3)cc2)CC1 [Compound 82, Phenyl-N-[4-(5-[4-(4-methylpiperazino)benzoyl]amino-1H-3-pyrazolyl)benzyl]carbamate] | 7.70 to 9.00 | – | – | IC50 (VEGFR1; IC50, VEGFR1 assay, bound in nM): < 0.1 µM; IC50 (VEGFR1; [5]): < 1 µM; IC50 (VEGFR2; [6]): < 1 µM; IC50 (VEGFR2; [7]): 0.055 to 0.4 µM
O=C(NCc1ccc(-c2cc(NC(=O)c3ccc(OCCN4CCCC4)cc3)[nH]n2)cc1)OCc1ccccc1 [Compound 73, Benzyl-N-[4-(5-[4-(2-tetrahydro-1H-1-pyrrolylethoxy)benzoyl]amino-1H-3-pyrazolyl)benzyl]carbamate] | 7.70 to 9.00 | < 1 µM | 0.055 to 0.4 µM | IC50 (VEGFR1; [4]): < 0.1 µM; IC50 (VEGFR1; [1]): < 1 µM
Cc1nc(Nc2cc(-c3ccc(CNC(=O)OCc4ccccc4)cc3)n[nH]2)cc(N2CCN(CCO)CC2)n1 [Compound 97, Benzyl-N-4-[5-(6-[4-(2-hydroxyethyl)piperazino]-2-methyl-4-pyrimidinylamino)-1H-3-pyrazolyl]benzylcarbamate] | 7.70 to 9.00 | < 1 µM | 0.055 to 0.4 µM | –
Cc1nc(Nc2cc(-c3ccc(CNC(=O)OCc4cc(C)on4)cc3)n[nH]2)cc(N2CCN(C)CC2)n1 [Compound 99, (5-Methyl-3-isoxazolyl)methyl-N-[4-(5-[2-methyl-6-(4-methylpiperazino)-4-pyrimidinyl]amino-1H-3-pyrazolyl)benzyl]carbamate] | 7.70 to 9.00 | – | – | –
Cc1cc(-c2cc(NC(=O)c3ccc(N4CCN(C)CC4)cc3)[nH]n2)ccc1N [Compound 6, N1-[3-(4-amino-3-methylphenyl)-1H-5-pyrazolyl]-4-(4-methylpiperazino)benzamide] | 7.70 to 9.00 | < 1 µM | 0.055 to 0.4 µM | –
Cc1cc(COC(=O)NCc2ccc(-c3cc(NC(=O)c4ccc(N5CCN(C)CC5)cc4)[nH]n3)cc2)no1 [Compound 75, (5-Methyl-3-isoxazolyl)methyl-N-[4-(5-[4-(4-methylpiperazino)benzoyl]amino-1H-3-pyrazolyl)benzyl]carbamate] | 7.70 to 9.00 | < 1 µM | 0.055 to 0.4 µM | IC50 (VEGFR1; [1]): < 1 µM
CN1CCN(Cc2ccc(C(=O)Nc3cc(-c4ccc(CNC(=O)OCc5ccccc5)cc4)n[nH]3)cc2)CC1 [Compound 77, Benzyl-N-4-[5-(4-[(4-methylpiperazino)methyl]benzoylamino)-1H-3-pyrazolyl]benzylcarbamate] | 7.70 to 9.00 | – | – | –
CN1CCN(c2ccc(C(=O)Nc3cc(-c4ccc(NC(=O)Oc5ccccc5)cc4)n[nH]3)cc2)CC1 [Compound 68, Phenyl-N-[4-(5-[4-(4-methylpiperazino)benzoyl]amino-1H-3-pyrazolyl)phenyl]carbamate] | 7.70 to 9.00 | – | – | IC50 (VEGFR1; [5]): < 1 µM; IC50 (VEGFR2; [6]): < 1 µM; IC50 (VEGFR2; [7]): 0.055 to 0.4 µM
CN1CCN(c2ccc(C(=O)Nc3cc(-c4ccc(N)cc4)n[nH]3)cc2)CC1 [Compound 2, N1-[3-(4-aminophenyl)-1H-5-pyrazolyl]-4-(4-methylpiperazino)benzamide] | 7.70 to 9.00 | – | – | –
CC(C)(C)c1cc(NC(=O)NCc2ccc(-c3cc(NC(=O)c4ccc(OCCN5CCOCC5)cc4)[nH]n3)cc2)no1 [Compound 60, N1-[3-(4-[([5-(tert-butyl)-3-isoxazolyl]aminocarbonyl)amino]methylphenyl)-1H-5-pyrazolyl]-4-(2-morpholinoethoxy)benzamide] | 7.70 to 9.00 | < 1 µM | 0.001 to 0.055 µM | –
